Each structure is given as a SMILES string.

One compound from patent US10653698B2, “Methods of improving myocardial performance in Fontan patients using udenafil compositions” (priority 2014, dated 2020) can be followed below.

The data set in a line: clinical. To be noted: human, in vivo. On the procedure: The population PK analysis was performed using a non-linear mixed effects modeling approach. This approach estimates the typical value of parameters and their variances. It was assumed subjects were at steady state (SS): at a time (t) after dose (D) given at time tD after repeated administration of dose D given at interval τ (t≥tD) as PK samples/udenafil concentrations were taken on study day 6.
As only the drug administration at Day 6 was supplied, it is expected that the subjects have taken the drug at regular intervals at home; due to this a steady state flag will be tested to account for the doses which are not available. As stated, it is assumed steady state has been reached by Day 6, as previous studies of udenafil have stated that during multiple dosing, steady state is reached in 5 days, with apparently little additional accumulation occurring after dosing for 7 days. If there were missed doses during the study period prior to the PK sampling, this can affect the ability to determine whether steady state could be assumed or not for the PK profile. If two or more additional drug administration dates and times were available prior to the visit where the PK samples were taken, then a much better dosing profile could be used for analysis.
One- and two-compartment models were explored (based on literature and available data). The equation for the Input model for the drug described oral absorption. For the one-compartment model, the following equation may apply to the model:
The robustness of the final model was assessed in PDxPOP® 5 by bootstrap re-sampling (n=1000). Values obtained with the bootstrap (based on all runs with successful minimization) were compared to the parameter estimates from the final model. To evaluate the accuracy of the model predictions, normalized prediction distribution errors (NPDE) was performed.
One- and two-compartment models with oral absorption input were evaluated using initial estimates obtained from the literature as described above, and were explored to determine the potential structure of the model. The models were evaluated during the model building process by using objective function value, level of statistical significance, goodness of fit plots, and standard error.
The only covariate available for analysis was current body weight. Weight was tested as a fixed effect on typical values for clearance and volume of distribution (e.g., weight has a “fixed effect” on clearance). Median weight in the dataset was 65.3 kg. […]
During the model building process, a number of residual error models were evaluated. […]
Bootstrap re-sampling was undertaken to compare the parameter estimates from the final model with those determined following 1000 bootstrap runs. […]

One may read the Vd/F as the apparent distribution volume after extravascular dosing. With `CCCOc1ccc(S(=O)(=O)NCCC2CCCN2C)cc1-c1nc2c(CCC)nn(C)c2c(=O)[nH]1` (stereo not shown) [udenafil], the Vd/F was 74 L, the “apparent clearance (CL/F/70 kg)” value was determined as 36 L/h, the inter-compartmental clearance (Q/F) came to 21.1 L/h and the “peripheral volume of distribution (V3/F)” value is on record as 181 L.
